One compound from patent US12702643B2, “Ion-exchange composition with water-soluble mucoadhesive polymers” (Fertin Pharma A/S, priority 2019, dated 2026) can be followed below.

The conditions of this series: increase of nicotine concentration from 100 microgram/mL to 14,000 microgram/mL.

Consider `CN1CCCC1c1cccnc1` (stereo not shown) [nicotine], for which the “Permeability of nicotine across the buccal mucosa” value is “decrease of about a factor of two”.
